Here are results for 70 compounds from ChEMBL document CHEMBL4725496, “Escaping from Flatland: Antimalarial Activity of sp-Rich Bridged Pyrrolidine Derivatives” (ACS Med Chem Lett, 2020).

The term IC50 denotes the midpoint of a concentration-inhibition curve. What is called inhibition is the change of the read-out against control, counted positive when it falls. Broadly, the logD is the decadic logarithm of the distribution of all forms, ionised or not, between an organic phase and buffer at a given pH. Low readings indicate a more hydrophilic compound, high ones a more lipophilic compound.

For data set [1], the system named is Plasmodium falciparum. The data set is described as follows: Antimalarial activity against chloroquine-sensitive Plasmodium falciparum 3D7 infected in human erythrocytes assessed as reduction in parasitemia incubated for 72 hrs by SYBR green dye based fluorescence assay. The following applies: 3D7, Erythrocyte. In kind it is functional, organism-based.
Data set [2] has as its system Plasmodium falciparum. Briefly: Antimalarial activity against chloroquine-sensitive Plasmodium falciparum 3D7 infected in human erythrocytes assessed as reduction in parasitemia at 10 uM incubated for 72 hrs by SYBR green dye based fluorescence assay relative to control. In kind it is functional. As to conditions: 3D7, Erythrocyte.
The nature of data set [3]: 1-Octanol/phosphate buffered-saline distribution coefficient, logD of compound in pH 7.4 at 75 uM measured after 2 hrs under shaking condition by LC-MS analysis. In kind it is physicochemical.
Data set [4] can be described thus: Kinetic solubility of compound in PBS buffer measured after 2 hrs under shaking condition by UV spectroscopic analysis. The format is physicochemical. As to conditions: read-out: Kinetic_solubility.
Data set [5] in a line: Intrinsic clearance in human liver microsome at 1 uM measured upto 60 mins by LC-MS/MS analysis. In kind it is ADME. As to conditions: microsomes, 1 h. A general note: Liver microsomes are a subcellular fraction often used to study metabolism.
Data set [6] can be described thus: Intrinsic clearance in rat hepatocytes at 1 uM incubated upto 90 mins measured per 10^6 cells by LC-MS/MS analysis. The format is ADME, cell-based, Hepatocyte. As to conditions: 1.5 h, time 0-90 min.
Data set [7] deals with HepG2. The data set is described as follows: Cytotoxicity against human HepG2 cells incubated for 72 hrs by Cell Titer Glo assay. The format is cell-based. As to conditions: HepG2, 72 h. For orientation: ATP-based viability assays read luminescence as a measure of living cells.
The test system of data set [8] is Plasmodium falciparum. Briefly: Antimalarial activity against […] Plasmodium falciparum 3D7 by LDH assay. In kind it is functional, organism-based.
The subject of data set [9] is Plasmodium falciparum. Briefly: Antimalarial activity against multi-drug-resistant Plasmodium falciparum Dd2 by LDH assay. In kind it is functional, organism-based.

Bounds are passed on as bounds.

For the compound `COc1ccc(NC(=O)OC(C)(C)C)c(C(=O)NCC23CC(CN2Cc2ccccc2)C3)c1`, in [1], the IC50 is 6.2 µM. On to `O=C(/C=C/c1cccc(F)c1)NCC12CC(CN1Cc1ccccc1)C2`, for which the half-inhibitory concentration (IC50) in [1] came out at 22 µM.

For `O=C(NCC12CC(CN1Cc1ccccc1)C2)c1ccc(Cl)c(Br)c1`, the half-maximal inhibitory concentration (IC50) in [1] came out at 5.2 µM.

On to `O=C(Cc1cc(F)ccc1F)NCC12CC(CN1Cc1ccccc1)C2`, for which the inhibition at 10 µM in [2] is -8.2%. As to `Cc1ccc(-c2cc(C(=O)NCC34CC(CN3Cc3ccccc3)C4)[nH]n2)o1`, in data set [1], the IC50 was 15 µM. On the same count and under the same terms, as for `O=C(NCC12CC(CN1Cc1ccccc1)C2)c1ccc(-c2ccco2)cc1`, the figure is 9.4 µM.

For the compound `O=C(NCC12CC(CN1Cc1ccccc1)C2)c1ccc(Br)s1`, the half-maximal inhibitory concentration (IC50) in data set [1] was determined as 12.7 µM. As for `COc1cccc2c(C(=O)NCC34CC(CN3Cc3ccccc3)C4)c[nH]c12`, the IC50 in [1] came to 19 µM. The same measure, in the same setting: as for `COc1ccc(C2(C(=O)NCC34CC(CN3Cc3ccccc3)C4)CCCC2)cc1`, the figure is 9.6 µM. For the compound `O=C(NCC12CC(CN1Cc1ccccc1)C2)C1CC1c1cc(Cl)cc(Cl)c1` (configuration not stated), in data set [1], the IC50 was determined as 4.5 µM. Regarding `O=C(NCC12CC(CN1Cc1ccccc1)C2)c1ccc(Br)cc1Cl`, the 50% inhibitory concentration (IC50) in data set [1] was 8.8 µM. Turning to `O=C(NCC12CC(CN1Cc1ccccc1)C2)c1ccccc1Cl`, the inhibition at 10 µM in data set [2] is -7.9%. With `O=C(/C=C/c1ccc(F)cc1)NCC12CC(CN1Cc1ccccc1)C2`, the 50% inhibitory concentration (IC50) in [1] turned out to be 13 µM. Turning to `O=C(NCC12CC(CN1Cc1ccccc1)C2)c1ccc(C(F)(F)F)cc1Cl`, the IC50 in data set [1] was 8.7 µM. Still for that read-out and setting: as for `Cc1nn(-c2ccccc2)nc1C(=O)NCC12CC(CN1Cc1ccccc1)C2`, the figure is 14 µM; as for `COc1ccc(C(=O)NCC23CC(CN2Cc2ccccc2)C3)cc1Cl`, 16 µM. Still for that read-out and setting: as for `Cc1cc2[nH]c(C(=O)NCC34CC(CN3Cc3ccccc3)C4)cc2o1`, the figure is 11 µM; as for `O=C(NCC12CC(CN1Cc1ccccc1)C2)c1ccc2[nH]ccc2c1`, 17 µM; as for `CC(C)(C)OC(=O)Nc1ccccc1C(=O)NCC12CC(CN1Cc1ccccc1)C2`, 7.2 µM.

Turning to `O=C(NCC12CC(CN1Cc1ccccc1)C2)c1c[nH]c2c(Cl)cccc12`, in data set [1], the IC50 was 5.1 µM. As to `O=C(Cc1ccc(F)c(Br)c1)NCC12CC(CN1Cc1ccccc1)C2`, the inhibition at 10 µM in data set [2] was 40%. As to `COc1cc(C(=O)NCC23CC(CN2Cc2ccccc2)C3)ccc1Br`, the IC50 in data set [1] is 5.7 µM.

Regarding `O=C(NCC12CC(CN1Cc1ccccc1)C2)c1ccc(Cl)c(C(F)(F)F)c1`, in [1], the IC50 is 3.3 µM. The same measure, in the same setting: the figure for `O=C(NCC12CC(CN1Cc1ccccc1)C2)c1ccc(-n2cccn2)cc1Cl` is 19 µM; for `O=C(NCC12CC(CN1Cc1ccccc1)C2)c1ccc(Br)c(Cl)c1` it is 3.6 µM; for `O=C(NCC12CC(CN1Cc1ccccc1)C2)c1cc2cc(Br)ccc2o1` it is 3.9 µM. As to `O=C(NCC12CC(CN1Cc1ccccc1)C2)c1cccc(Cl)c1Cl`, the inhibition at 10 µM in [2] was -8.2%. Consider `O=C(NCC12CC(CN1Cc1ccccc1)C2)c1ccc(OC(F)(F)F)cc1`, for which, in data set [1], the 50% inhibitory concentration (IC50) stood at 12.7 µM. The same measure, in the same setting: as for `O=C(NCC12CC(CN1Cc1ccccc1)C2)c1coc2ccccc12`, the figure is 15 µM. Still for that read-out and setting: the figure for `O=C(/C=C/c1ccccc1Cl)NCC12CC(CN1Cc1ccccc1)C2` is 5.8 µM. On the same count and under the same terms, as for `Cc1cc(C(=O)NCC23CC(CN2Cc2ccccc2)C3)ccc1Br`, the figure is 9.4 µM; as for `COc1ccc2cc(C(=O)NCC34CC(CN3Cc3ccccc3)C4)ccc2c1`, 3.6 µM; as for `O=C(NCC12CC(CN1Cc1ccccc1)C2)c1cc2c(Br)cccc2[nH]1`, 1.6 µM.

Turning to `O=C(/C=C/c1ccccc1F)NCC12CC(CN1Cc1ccccc1)C2`, in data set [1], the IC50 stood at 11 µM. As for `O=C(NCC12CC(CN1Cc1ccccc1)C2)c1cccc(Br)c1`, in [2], the inhibition at 10 µM came out at 35%. For `O=C(NCC12CC(CN1Cc1ccccc1)C2)c1ccc(OCc2ccccc2)cc1`, in data set [1], the half-inhibitory concentration (IC50) came to 6.2 µM. Same read-out and setting: the figure for `CC(C)(C)c1cc(C(=O)NCC23CC(CN2Cc2ccccc2)C3)cc(C(C)(C)C)c1` is 2.6 µM; for `O=C(NCC12CC(CN1Cc1ccccc1)C2)c1ccc2ccccc2c1` it is 14 µM. Consider `O=C(NCC12CC(CN1Cc1ccccc1)C2)c1cccc(Cl)c1`, for which the IC50 in [1] worked out at 13 µM. For `Cc1cc(C(=O)NCC23CC(CN2Cc2ccccc2)C3)no1`, in data set [1], the IC50 was 3.4 µM. The same measure, in the same setting: as for `O=C(NCC12CC(CN1Cc1ccccc1)C2)c1cc(Br)c(Br)s1`, the figure is 3.7 µM; as for `O=C(NCC12CC(CN1Cc1ccccc1)C2)c1ccc2cccc(Br)c2n1`, 9 µM. As to `O=C(NCC12CC(CN1Cc1ccccc1)C2)c1cc(F)ccc1F`, the inhibition at 10 µM in data set [2] was 67%.

Take `Cc1cccc(C(=O)NCC23CC(CN2Cc2ccccc2)C3)c1`: the inhibition at 10 µM in data set [2] was 7.6%. As for `O=C(NCC12CC(CN1Cc1ccccc1)C2)c1cccc(OC(F)(F)F)c1`, in [1], the half-inhibitory concentration (IC50) is 9.4 µM. Consider `O=C(NCC12CC(CN1Cc1ccccc1)C2)c1cc(F)cc(C(F)(F)F)c1`, for which the concentration for half-maximal inhibition (IC50) in data set [1] was 8.9 µM. Same read-out and setting: the figure for `O=C(Cc1cccc(C(F)(F)F)c1)NCC12CC(CN1Cc1ccccc1)C2` is 22 µM; for `COc1cccc(C(=O)NCC23CC(CN2Cc2ccccc2)C3)c1C` it is 15 µM; for `O=C(Cc1ccc(Cl)c(Cl)c1)NCC12CC(CN1Cc1ccccc1)C2` it is 11 µM. Still for that read-out and setting: as for `C=Cc1ccc(C(=O)NCC23CC(CN2Cc2ccccc2)C3)cc1`, the figure is 8.5 µM.

As to `O=C(NCC12CC(CN1Cc1ccccc1)C2)c1ccccc1`, the inhibition at 10 µM in [2] was -20%. `O=C(NCC12CC(CN1Cc1ccccc1)C2)C1(c2ccc(Cl)cc2)CCC1`: the IC50 in data set [1] was found to be 6.2 µM.

With `O=C(NCC12CC(CN1Cc1ccccc1)C2)c1cc(Br)cs1`, the IC50 in data set [1] turned out to be 22 µM. Same read-out and setting: as for `O=C(NCC12CC(CN1Cc1ccccc1)C2)c1cc(F)c(Cl)c(F)c1`, the figure is 12 µM; as for `O=C(NCC12CC(CN1Cc1ccccc1)C2)c1ccc2[nH]nc(Br)c2c1`, 5.5 µM; as for `O=C(NCC12CC(CN1Cc1ccccc1)C2)c1ccc(F)c(Cl)c1`, 8.5 µM. Regarding `O=C(NCC12CC(CN1Cc1ccccc1)C2)c1ccc(Cl)cc1`, the inhibition at 10 µM in [2] was 38%. Take `O=C(NCC12CC(CN1Cc1ccccc1)C2)c1ccc(F)c(Br)c1`: in data set [1], the IC50 was 12 µM. For the compound `Cc1ccc(Cl)cc1C(=O)NCC12CC(CN1Cc1ccccc1)C2`, the half-maximal inhibitory concentration (IC50) in [1] is 19 µM.

As to `O=C(Cc1ccc(Br)c(F)c1)NCC12CC(CN1Cc1ccccc1)C2`, in data set [1], the IC50 amounted to 24 µM. Take `CC(C)(C)OC(=O)N[C@H](C(=O)NCC12CC(CN1Cc1ccccc1)C2)C1CCCCC1`: the IC50 in data set [1] worked out at 24 µM.

For `O=C(NCC12CC(CN1Cc1ccccc1)C2)c1cc(Cl)cc(C(F)(F)F)c1`, the IC50 is 1.3 µM in data set [1], more than 17 µM in data set [7], 4.3 µM in data set [8] and 5.4 µM in data set [9]. In data set [3], this compound came in with a log distribution coefficient (logD) at 2 h, 75 µM of 3.2. Also, in [4], the solubility kinetic at 2 h is more than 200 µM. For the same compound, the results for the CLint in data set [5] and in [6] were 27 µL/min/mg and 8 µL/min/1e6 cells, respectively. Take `O=C(NCC12CC(CN1Cc1ccccc1)C2)c1ccc(Cl)c(Cl)c1`: in data set [1], the half-maximal inhibitory concentration (IC50) came out at 5.1 µM. Same read-out and setting: as for `O=C(NCC12CC(CN1Cc1ccccc1)C2)c1ccc(Br)c(F)c1`, the figure is 10 µM. Take `CSc1ccc(Cl)c(C(=O)NCC23CC(CN2Cc2ccccc2)C3)c1`: the IC50 in [1] was found to be 18 µM.

For the compound `Cn1ccc2ccc(C(=O)NCC34CC(CN3Cc3ccccc3)C4)cc21`, the IC50 in data set [1] was determined as 7.1 µM. On to `O=C(NCC12CC(CN1Cc1ccccc1)C2)C1(c2ccc(Cl)cc2Cl)CC1`, for which the IC50 in data set [1] turned out to be 1.1 µM. Consider `O=C(NCC12CC(CN1Cc1ccccc1)C2)c1cc(Br)cc(C(F)(F)F)c1`, for which the IC50 in data set [1] is 2.7 µM. Same read-out and setting: as for `CCCCCCCCCC(=O)NCC12CC(CN1Cc1ccccc1)C2`, the figure is 7.4 µM; as for `O=C(CCCC1CCCCC1)NCC12CC(CN1Cc1ccccc1)C2`, 13 µM.
